# Experimental data published in US10316021B2, “Heteroarylphenoxy benzamide kappa opioid ligands” (Pfizer Inc., priority 2016, dated 2019).
# Columns and labels:
# kappa opioid receptor [1] = target: T1, kappa opioid receptor (Mus musculus, UniProt P33534); assay: In vivo receptor occupancy (displacement of [3H]GR103545 in brain); conditions: subcutaneous dosing; for IC50: displacement of [3H]GR103545, unbound brain concentration, read-out: Mouse KOR IVRO unbound brain IC50
# T1 construct: from tissue; host or cells: brain of adult male C57BL/6J mice (in vivo)
# T1 sequence (P33534 whole entry): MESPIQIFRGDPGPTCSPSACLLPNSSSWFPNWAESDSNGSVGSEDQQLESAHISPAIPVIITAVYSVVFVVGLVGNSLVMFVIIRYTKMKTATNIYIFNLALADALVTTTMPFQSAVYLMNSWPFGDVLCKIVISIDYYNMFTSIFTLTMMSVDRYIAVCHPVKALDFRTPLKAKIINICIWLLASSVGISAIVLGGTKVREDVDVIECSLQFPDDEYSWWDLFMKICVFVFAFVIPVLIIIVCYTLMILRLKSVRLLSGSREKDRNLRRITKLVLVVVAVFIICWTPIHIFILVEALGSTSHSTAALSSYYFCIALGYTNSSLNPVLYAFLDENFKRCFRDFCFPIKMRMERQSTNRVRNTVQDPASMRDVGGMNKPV
# From the text: (§1) Adult male C576BL/J6 mice from Jackson Labs (Bar Harbor, Me.) were group housed on individually-vented cage racks, in environmentally-controlled animal quarters (light/dark-6:00 am/6:[…]) for a minimum of 7 days prior to use. For progressive ratio studies, mice were food-restricted to 80-85% of their body weight before testing began. All animal procedures were approved by the Pfizer Inc. IACUC and conducted in accordance with the NIH Guide for the Care and Use of Laboratory Animals.
# In Vivo Receptor Occupancy
# In vivo receptor occupancy was assessed in adult male C57BL6/J mice. Mice were administered increasing doses (0.001-32 mg/kg s.c.) 30 min prior to administration of the kappa opioid receptor ligand, [^3H]GR103545 (100 μCi/kg, intraorbital). Animals were euthanized 10 min later using cervical dislocation and the brains dissected. One hemisphere was stored at −40° C. for subsequent measurement of compound concentration, the other was homogenized in chilled Tris-HCl buffer (50 mM, pH 7.4; 1:10 w/v) for twenty seconds. Samples of brain homogenate were filtered through 0.3 to 0.5% PEI-soaked GF/B filters, and the filters washed twice with chilled buffer before radioactivity was counted overnight using a scintillation counter. Binding of the ligand in cerebellum was used to determine non-specific binding.
# kappa opioid receptor [2] = target: T1, kappa opioid receptor; assay: Progressive ratio responding (reversal of spiradoline-induced deficit in motivation); assay type: in vivo; conditions: co-administered with spiradoline, receptor occupancy measured in a separate group of animals
# From the text: as §1
# Progressive Ratio Responding:
# Motivation and food-reinforced operant behavior were assessed in the progressive ratio assay. Adult male C576BL/J6 mice were food-restricted to 80-85% of their body weight over a period of one week and kept in their home cages. Mice were trained to nose-poke for a food reward. […] Mice were assessed in a 60 minute session, where the number of rewards obtained was used as a surrogate of the level of motivation. Once mice had reached a stable level of responding, mice were dosed with the kappa opioid receptor agonist, spiradoline (3.2 mg/kg s.c.), to induce a deficit in motivation. Mice were co-administered increasing doses of the kappa opioid receptor antagonists (0.0032-3.2 mg/kg s.c.) to assess their ability to antagonize the spiradoline-induced deficit.
# major CYP450 isozymes = assay: CYP450 DDI cocktail assay (reversible inhibition, all isozymes together); assay type: in vitro ADME, human; conditions: for risk of reversible inhibition of CYP450 isozymes, in words: 3 μM; for >25% reversible inhibition of CYP activity at 3 μM (CYP): CYP450 DDI cocktail assay, isozymes inhibited in brackets
# Procedure: Multi-Point Cocktail DDI IC50 Assay Conditions:
# Standard marker activity substrates were incubated with pooled human liver microsomes (HL-MIX-102) in the presence of NADPH (1.2 mM) in 100 mM KH2PO4, pH 7.4 containing 3.3 mM MgCl2 at 37° C. The incubation volume was 0.1 mL, utilizing a 384-well plate format. The microsomal protein concentrations (0.1 mg/mL) and P450 concentration (0.035 μM) was used for each probe substrate at the following concentrations [tacrine (1A2) 2 uM; diclofenac (2C9) 5 μM; dextromethorphan (2D6) 5 μM; midazolam (3A4) 2 μM; taxol (2C8) 5 μM; S-mephenytoin (2C19) 40 μM]. Substrate concentrations were near Km values that had been previously determined and incubation times were selected based on determinations of reaction velocity linearity. Each test compound/prototypical inhibitors was tested at a concentration range of 0-30 μM in triplicate, in final vehicle solvent concentrations of 0.9% acetonitrile and 0.1% DMSO. Incubations were initiated with the addition of NADPH. At the end of the incubation period, termination solvent containing internal standard was added, the terminated incubation mixture was centrifuged to precipitate microsomal protein. Samples were directly injected on an HPLC-MS/MS system. A Biomek FX workstation was used for liquid handling and sample incubation.
# Reversible CYP450 inhibitory potential for each compound was assessed using the CYP450 DDI cocktail assay, measuring the inhibition of the metabolism of a known probe substrate of each of the major CYP isozymes at 3 μM concentration.
smiles,measurement,setting,value
"COc1nn(C)cc1[C@@H]1CCCN1Cc1ccc(Oc2ccc(C(N)=O)cc2)cc1 (single isomer, unassigned) [Example 12]","displacement of KOR agonist radioligand binding in the brain, in words",kappa opioid receptor [1],displaced KOR agonist radioligand ([^3H]GR103545) binding in the brain in an exposure-dependent manner
same,IC50,kappa opioid receptor [1],2.5 nM
same,% KOR IVRO to achieve 50% PR reversal,kappa opioid receptor [2],30%
same,"risk of reversible inhibition of CYP450 isozymes, in words",major CYP450 isozymes,no significant risk of reversible inhibition
same,>25% reversible inhibition of CYP activity at 3 μM (CYP),major CYP450 isozymes,no
"COc1nn(C)cc1C1CCCN1Cc1ccc(Oc2ccc(C(N)=O)cc2F)cc1 (single isomer, unassigned; (-)) [Example 8, (−)-3-Fluoro-4-(4-{[2-(3-methoxy-1-methyl-1H-pyrazol-4-yl)pyrrolidin-1-yl]methyl}phenoxy)benzamide]","displacement of KOR agonist radioligand binding in the brain, in words",kappa opioid receptor [1],displaced KOR agonist radioligand ([^3H]GR103545) binding in the brain in an exposure-dependent manner
same,IC50,kappa opioid receptor [1],0.69 nM
same,% KOR IVRO to achieve 50% PR reversal,kappa opioid receptor [2],25%
same,"risk of reversible inhibition of CYP450 isozymes, in words",major CYP450 isozymes,no significant risk of reversible inhibition
same,>25% reversible inhibition of CYP activity at 3 μM (CYP),major CYP450 isozymes,no
"NC(=O)c1ccc(Oc2ccc(CN3CCC(c4ccccc4)C3)cc2)nc1 (stereo not drawn) [Comparator A, reference compound]",>25% reversible inhibition of CYP activity at 3 μM (CYP),major CYP450 isozymes,no
NC(=O)c1ccc(Oc2ccc(CN3CCCCC3c3ccccc3)cc2)nc1 (stereo not drawn) [Comparator B],>25% reversible inhibition of CYP activity at 3 μM (CYP),major CYP450 isozymes,no
NC(=O)c1ccc(Oc2ccc(CN3CCCC3c3cccnc3)cc2)c(Cl)c1 (stereo not drawn) [Comparator C],"risk of reversible inhibition of CYP450 isozymes, in words",major CYP450 isozymes,"a risk for reversible DDI at CYP450 isozymes 2C8, 2C9, 3A4, and/or 2D6"
same,>25% reversible inhibition of CYP activity at 3 μM (CYP),major CYP450 isozymes,"yes (2C8, 2C9,"
NC(=O)c1ccc(Oc2ccc(CN3CCCC3c3ccccc3)cc2)nc1 (stereo not drawn) [Comparator D],"risk of reversible inhibition of CYP450 isozymes, in words",major CYP450 isozymes,"a risk for reversible DDI at CYP450 isozymes 2C8, 2C9, 3A4, and/or 2D6"
same,>25% reversible inhibition of CYP activity at 3 μM (CYP),major CYP450 isozymes,yes (2D6)
"Cc1cc(C)cc([C@@H]2CCCN2Cc2ccc(Oc3ccc(C(N)=O)cc3F)cc2)c1 [Comparator E, reference compound]","displacement of KOR agonist radioligand binding in the brain, in words",kappa opioid receptor [1],displaced KOR agonist radioligand ([^3H]GR103545) binding in the brain in an exposure-dependent manner
same,IC50,kappa opioid receptor [1],0.015 nM
same,% KOR IVRO to achieve 50% PR reversal,kappa opioid receptor [2],70%
same,"risk of reversible inhibition of CYP450 isozymes, in words",major CYP450 isozymes,"a risk for reversible DDI at CYP450 isozymes 2C8, 2C9, 3A4, and/or 2D6"
same,>25% reversible inhibition of CYP activity at 3 μM (CYP),major CYP450 isozymes,yes (2C8)
NC(=O)c1ccc(Oc2ccc(CN3CCC[C@H]3c3cccc(F)c3)cc2)c(F)c1 [Comparator F],>25% reversible inhibition of CYP activity at 3 μM (CYP),major CYP450 isozymes,no
"Cc1nn(C)cc1[C@@H]1CCCN1Cc1ccc(Oc2ccc(C(N)=O)cc2)cc1 [Example 11, 4-(4-{[(2S)-2-(1,3-Dimethyl-1H-pyrazol-4-yl)pyrrolidin-1-yl]methyl}phenoxy)benzamide]","displacement of KOR agonist radioligand binding in the brain, in words",kappa opioid receptor [1],displaced KOR agonist radioligand ([^3H]GR103545) binding in the brain in an exposure-dependent manner
same,IC50,kappa opioid receptor [1],2.5 nM
same,% KOR IVRO to achieve 50% PR reversal,kappa opioid receptor [2],30%
same,"risk of reversible inhibition of CYP450 isozymes, in words",major CYP450 isozymes,no significant risk of reversible inhibition
same,>25% reversible inhibition of CYP activity at 3 μM (CYP),major CYP450 isozymes,no
